Test results: patent US20060004102A1, “Polymorphic forms of nateglinide” (priority 2004, published 2006)
Where a name gives a salt, the structure may show the parent alone. Read-outs that look alike come from different tables or passages of the source. Each block holds one molecule with its values, some of them ahead of it.

What was measured:
[1] = cited from earlier work
[2] = Solubility of nateglinide in solvents; assay type: physicochemical; conditions: mixture of methanol, water and a base (source of ammonium ions)
[3] = DSC, according to U.S. Pat. No. 5,463,116; cited from earlier work

Structure (SMILES): CC(C)[C@H]1CC[C@H](C(=O)N[C@H](Cc2ccccc2)C(=O)O)CC1 [nateglinide, (−)-N-(trans-4-isoporpylcyclohexanecarbonyl)-D-Phenylalanine]
solubility ([1]; in acetonitrile): sparingly soluble
solubility ([1]; in chloroform): freely soluble
solubility ([1]; in ethanol): freely soluble
solubility ([1]; in ether): soluble
solubility ([1]; in methanol): freely soluble
solubility ([1]; in octanol): sparingly soluble
solubility ([1]; in water): practically insoluble
solubility ([1]; in water, listed as Nateglinide): insoluble

solubility [2]: relatively insoluble
Structure (SMILES): CC(C)[C@H]1CC[C@H](C(=O)N[C@H](Cc2ccccc2)C(=O)O)CC1 [Form Phi, nateglinide ammonium salt]

Structure (SMILES): CC(C)[C@H]1CC[C@H](C(=O)N[C@H](Cc2ccccc2)C(=O)O)CC1 [B-type, nateglinide]
stability of crystal form during grinding [3]: unstable and susceptible to change during grinding
